Assay results as given in patent publication US10919905B2, “Polymorphism for irinotecan free base” (ScinoPharm Taiwan, Ltd., priority 2019, dated 2021).

Assay: variable humidity x-ray powder diffraction (VH-XRPD), humidity effect on XRPD pattern
Format: physicochemical
Conditions: FIG. 7
Method: X-ray Powder Diffraction patterns were collected on a Bruker AXS D8 diffractometer using Cu Kα1 radiation (40 kV, 40 mA), θ-2θ goniometer, and divergence of 10 mm slits, a Ge monochromator and LynxEye detector. The representative PXRD pattern was collected under ambient condition.
Irinotecan free base (119 g) and dichloromethane (1600 mL, 13.5 vol) were added to a 3 L flask at room temperature (20-30° C.) to obtain a first suspension mixture. Water (120 mL, 1 vol) and 5% sodium bicarbonate (480 mL, 4 vol) were added to the first mixture at room temperature. The suspension was filtered, and then the phases were allowed to separate, and an organic layer was saved. Water (600 mL, 5 vol) was added, and the phases were allowed to separate, and the organic layer was saved. The organic layer was concentrated to about 430 mL (3.6 vol). Ethyl acetate (1440 mL, 12 vol) was added to the concentrated organic layer at 25-35° C. to obtain a second mixture. The second mixture was concentrated to about 1665 mL (14 vol) then cooled to 15-25° C. to obtain a slurry mixture. The slurry mixture was filtered, and a wet cake was obtained and dried under the nitrogen to afford irinotecan free base form S3 (98.04 g). The Form S3 was studied by using variable humidity x-ray powder diffraction (VH-XRPD) to investigate the humidity effect on XRPD pattern (FIG. 7). […] The changes in diffraction peaks are reversible with the humidity being changed.

Question: Which “humidity effect on XRPD pattern (change in diffraction peaks)” value (sample exposed at 5-40% RH) does the source give for `CCc1c2c(nc3ccc(OC(=O)N4CCC(N5CCCCC5)CC4)cc13)-c1cc3c(c(=O)n1C2)COC(=O)[C@]3(O)CC` [Form S3, [1,4′-bipiperidine]-1′-carboxylic acid, (4S)-4,11-diethyl-3,4,12,14-tetrahydro-4-hydroxy-3,14-dioxo-1H-pyrano[3′,4′:6,7]indolizino[1,2-b]quinolin-9-yl ester] here?
Answer: no significant change in diffraction peaks was observed

Question: And the “humidity effect on XRPD pattern (change in diffraction peaks)” value (sample exposed at higher than 60% RH)?
Answer: the diffraction peaks changed

Question: And the “reversibility of changes in diffraction peaks” value (with the humidity being changed)?
Answer: reversible
